According to ChEMBL document CHEMBL5260828, “Amphiphilic glycoconjugates as potential anti-cancer chemotherapeutics” (Eur J Med Chem, 2018):
Converted amounts (≈) assume the structure as drawn.

How the values were obtained:
HeLa S3 = experiment: Cytotoxicity against human HeLa S3 cells; type: functional, cell-based; details: Homo sapiens, HeLa S3; read-out: IC50
P388 = experiment: Cytotoxicity against mouse P388 cells; type: functional, cell-based
B16 [1] = experiment: Cytotoxicity against mouse B16 cells; type: functional, cell-based
NCI-H69 = experiment: Cytotoxicity against human NCI-H69 cells; type: functional, cell-based; details: Homo sapiens, NCI-H69; read-out: IC50
P388/ADM = experiment: Cytotoxicity against mouse P388/ADM cells; type: functional, cell-based; details: Mus musculus, P388/ADM; read-out: IC50
NUGC-3 [2] = experiment: Cytotoxicity against human NUGC-3 cells assessed as cell growth inhibition incubated for 30 mins by MTT assay; type: functional, cell-based; details: NUGC-3, 0.5 h
HeLa [3] = experiment: Cytotoxicity against human HeLa cells assessed as inhibition of cell proliferation incubated for 72 hrs by MTT assay; type: functional, cell-based
HL-60 = experiment: Cytotoxicity against human HL-60 cells assessed as inhibition of cell proliferation incubated for 72 hrs by MTT assay; type: functional, cell-based; details: HL-60, 72 h
AGS = experiment: Antiproliferative activity against human AGS cells assessed as inhibition of cell growth incubated for 48 hrs by MTT assay; type: functional, cell-based
SF-268 = experiment: Antiproliferative activity against human SF-268 cells assessed as inhibition of cell growth incubated for 48 hrs by MTT assay; type: functional, cell-based
HCT-116 [4] = experiment: Antiproliferative activity against human HCT-116 cells assessed as inhibition of cell growth incubated for 48 hrs by MTT assay; type: functional, cell-based
NCI-H460 = experiment: Antiproliferative activity against human NCI-H460 cells assessed as inhibition of cell growth incubated for 48 hrs by MTT assay; type: functional, cell-based
MCF7 = experiment: Antiproliferative activity against human MCF7 cells assessed as inhibition of cell growth incubated for 48 hrs by MTT assay; type: functional, cell-based
SMMC-7721 = experiment: Cytotoxicity against human SMMC-7721 cells assessed as cell growth inhibition incubated for 48 hrs by MTT assay; type: functional, cell-based; details: SMMC-7721, 48 h
HeLa [5] = experiment: Cytotoxicity against human HeLa cells assessed as cell growth inhibition incubated for 48 hrs by MTT assay; type: functional, cell-based
B16 [6] = experiment: Cytotoxicity against mouse B16 cells assessed as cell growth inhibition incubated for 48 hrs by MTT assay; type: functional, cell-based; details: B16, 48 h
HepG2 = experiment: Cytotoxicity against human HepG2 cells assessed as cell growth inhibition by MTT colorimetric assay; type: functional, cell-based
Hep 3B2 = experiment: Cytotoxicity against human Hep3B cells assessed as cell growth inhibition by MTT colorimetric assay; type: functional, cell-based
MDA-MB-231 = experiment: Cytotoxicity against human MDA-MB-231 cells assessed as cell growth inhibition by MTT colorimetric assay; type: functional, cell-based
Ca9-22 = experiment: Cytotoxicity against human Ca9-22 cells assessed as cell growth inhibition by MTT colorimetric assay; type: functional, cell-based
HCT-116 [7] = experiment: Cytotoxicity against human HCT-116 cells assessed as cell growth inhibition incubated for 72 hrs by celltiter 96 aqueous cell proliferation assay; type: functional, cell-based; details: HCT-116, 72 h
NUGC-3 [8] = experiment: Cytotoxicity against human NUGC-3 cells assessed as cell growth inhibition by measuring lethal dose incubated for 30 mins by MTT assay; type: functional; details: NUGC-3, 0.5 h, read-out: LD50 (the source's name)
Lung NSCLC-N6 cell-line = experiment: Cytotoxicity against human Lung NSCLC-N6 cell-line by MTT colorimetric assay; type: functional, cell-based
HeLa [9] = experiment: Antiproliferative activity against human HeLa cells assessed as inhibition of cell growth incubated for 24 hrs by MTT assay; type: functional, cell-based
A549 = experiment: Cytotoxicity against human A549 cells assessed as cell growth inhibition incubated for 48 hrs by MTT assay; type: functional, cell-based; details: A549, 48 h
[10] = Mus musculus, P388, read-out: IC50
[11] = Mus musculus, B16, read-out: IC50

SMILES: C/C=C(\C)[C@H](O[C@@H]1O[C@H](CO)[C@@H](O)[C@H](O)[C@H]1O)[C@H](C)/C=C(C)/C=C/C/C(C)=C/Cc1nc(OC)c(OC)c(O)c1C
- IC50 (HeLa S3): 0.11 µg/mL (≈ 0.19 µM)
- IC50 (P388; [10]): 0.36 µg/mL (≈ 0.623 µM)
- IC50 (B16 [1]; [11]): 0.0074 µg/mL (≈ 0.0128 µM)
- IC50 (NCI-H69): 0.019 µg/mL (≈ 0.0329 µM)
- IC50 (P388/ADM): 0.25 µg/mL (≈ 0.433 µM)

SMILES: COc1nc(C/C=C(\C)C/C=C/C(C)=C/[C@@H](C)[C@@H](O[C@@H]2O[C@H](CO)[C@@H](O)[C@H](O)[C@H]2O)/C(C)=C/CO)c(C)c(O)c1OC
- IC50 (HeLa S3): 0.76 µg/mL (≈ 1.28 µM)
- IC50 (P388; [10]): 1.6 µg/mL (≈ 2.69 µM)
- IC50 (B16 [1]; [11]): 0.21 µg/mL (≈ 0.354 µM)
- IC50 (NCI-H69): 0.066 µg/mL (≈ 0.111 µM)
- IC50 (P388/ADM): 0.78 µg/mL (≈ 1.31 µM)

SMILES: CCCCCCCCCCCCCCCCCC(=O)OCC(O)CO[C@H]1O[C@H](CO)[C@@H](O)[C@H](O)[C@H]1O (stereo partly drawn)
- IC50 (NUGC-3 [2]): 110 µM

SMILES: C/C=C/C/C(C)=C\[C@H]1C/C=C/C=C/C[C@H](C)/C=C(\C)[C@@H](OC)C/C=C/[C@@H](O)CC(=O)O1
- IC50 (HeLa [3]): 0.049 µM
- IC50 (HL-60): 0.03 µM

SMILES: CC/C=C\C/C=C\C/C=C\CCCCCCCC(=O)OCC(CO[C@@H]1O[C@H](CO)[C@H](O)[C@H](O)[C@H]1O)OC(=O)CCCCCCCCCCCCCCC (stereo partly drawn)
- IC50 (AGS): 0.039 µg/mL (≈ 0.0518 µM)
- IC50 (SF-268): 0.039 µg/mL (≈ 0.0518 µM)
- IC50 (HCT-116 [4]): 0.039 µg/mL (≈ 0.0518 µM)
- IC50 (NCI-H460): 0.039 µg/mL (≈ 0.0518 µM)
- IC50 (MCF7): 0.039 µg/mL (≈ 0.0518 µM)

SMILES: CC/C=C\C/C=C\C/C=C\CCCCCCCC(=O)OCC(CO[C@H]1O[C@H](CNC(=O)CCc2ccc(O)cc2)[C@@H](O)[C@H](O)[C@H]1O)OC(=O)CCCCCCC/C=C\C/C=C\C/C=C\CC (stereo partly drawn)
- IC50 (SMMC-7721): 70.3 µg/mL (≈ 76.2 µM)
- IC50 (HeLa [5]): 70.3 µg/mL (≈ 76.2 µM)
- IC50 (B16 [6]): 70.3 µg/mL (≈ 76.2 µM)

SMILES: CC/C=C\C/C=C\C/C=C\CCCCCCCC(=O)OCC(CO[C@@H]1O[C@H](CO)[C@H](O)[C@H](O)[C@H]1O)OC(=O)CCCCCCCCCCCCCCCCC (stereo partly drawn)
- IC50 (AGS): 0.039 µg/mL (≈ 0.0499 µM)
- IC50 (SF-268): 0.039 µg/mL (≈ 0.0499 µM)
- IC50 (HCT-116 [4]): 0.039 µg/mL (≈ 0.0499 µM)
- IC50 (NCI-H460): 0.039 µg/mL (≈ 0.0499 µM)
- IC50 (MCF7): 0.039 µg/mL (≈ 0.0499 µM)

SMILES: CCCCCCCCCCCCOC[C@@H](COO)O[C@@H]1OC[C@@H](O)[C@@H](O)[C@@H]1O
- IC50 (HepG2): 9.2 µg/mL (≈ 22.5 µM)
- IC50 (Hep 3B2): 9.2 µg/mL (≈ 22.5 µM)
- IC50 (MDA-MB-231): 9.2 µg/mL (≈ 22.5 µM)
- IC50 (Ca9-22): 9.2 µg/mL (≈ 22.5 µM)

SMILES: CO[C@@H]1/C=C(\C)C[C@H](/C=C/C#C[C@H]2C[C@@H]2Cl)OC(=O)[C@@H](C)[C@]2(O)C[C@H](O[C@@H]3O[C@@H](C)[C@H](O)[C@@](C)(O)[C@H]3O[C@@H]3O[C@@H](C)[C@H](O)[C@@](C)(O)[C@H]3OC)[C@@H](C)[C@@H](O2)[C@@H]1C
- IC50 (HCT-116 [7]): 10.2 µM

SMILES: CCCCCCCCCCCCCCCCCC(=O)OCC(O)CO[C@@H]1O[C@H](CS(=O)(=O)O)[C@@H](O)[C@H](O)[C@H]1O (stereo partly drawn)
- CC50 (NUGC-3 [8]): 135 µM

SMILES: CO[C@@H]1/C=C(\C)C[C@H](/C=C/C#C[C@H]2C[C@@H]2Cl)OC(=O)[C@@H](C)[C@]2(O)C[C@H](O[C@@H]3O[C@@H](C)[C@H](O[C@@H]4O[C@@H](C)[C@H](O)[C@@](C)(O)[C@H]4OC)[C@@](C)(O)[C@H]3OC)[C@@H](C)[C@@H](O2)[C@@H]1C
- IC50 (Lung NSCLC-N6 cell-line): 15.1 µg/mL (≈ 18.5 µM)

SMILES: CCCCCCCCCCCCCCCCCC(=O)OCC(O)CO (stereo not drawn) [GLYCERYL MONOSTEARATE]
- IC50 (NUGC-3 [2]): 100 µM

SMILES: CO[C@@H]1/C=C(\C)C[C@H](/C=C/C=C/C#C[C@@H]2C[C@H]2Cl)OC(=O)C[C@]2(O)C[C@H](O[C@@H]3O[C@@H](C)[C@H]4NC(=O)O[C@@]4(C)[C@H]3OC)[C@H](C)[C@@H](O2)[C@@H]1C
- IC50 (HCT-116 [7]): 61.9 µM

SMILES: CCCCCCCCCCCCCC(=O)OCC(O)C[C@@H]1O[C@H](COC(C)=O)[C@H](OC(C)=O)[C@H](OC(C)=O)[C@H]1OC(C)=O (stereo partly drawn)
- IC50 (HeLa [9]): 57 µg/mL (≈ 92.4 µM)

SMILES: CCCCCCCCCCCCCCCC(=O)OCC(CO[C@H]1O[C@H](CS(=O)(=O)[O-])[C@@H](O)[C@H](O)[C@H]1O)OC(=O)CCCCCCCCCCCCCCC.[Na+] (stereo partly drawn)
- IC50 (A549): 83.5 µg/mL

SMILES: CC/C=C\C/C=C\C/C=C\CCCCCCCC(=O)OCC(CO[C@@H]1O[C@H](CO)[C@H](O)[C@H](O)[C@H]1O)OC(=O)CCCCCCC/C=C\C/C=C\C/C=C\CC (stereo partly drawn)
- IC50 (AGS): 0.039 µg/mL (≈ 0.0503 µM)
- IC50 (SF-268): 0.039 µg/mL (≈ 0.0503 µM)
- IC50 (HCT-116 [4]): 0.039 µg/mL (≈ 0.0503 µM)
- IC50 (NCI-H460): 0.039 µg/mL (≈ 0.0503 µM)
- IC50 (MCF7): 0.039 µg/mL (≈ 0.0503 µM)

SMILES: C/C=C(\C)C(O[C@@H]1O[C@H](CO)[C@@H](O)[C@H](O)[C@H]1O)C(C)/C=C(C)/C=C/CC(C)(O)/C=C/c1nc(OC)c(OC)c(O)c1C (stereo in doubt; 283)
- IC50 (HeLa S3): 0.62 µg/mL (≈ 1.04 µM)
- IC50 (P388; p388): 0.58 µg/mL (≈ 0.977 µM)
- IC50 (B16 [1]; b16): 0.32 µg/mL (≈ 0.539 µM)
- IC50 (NCI-H69): 0.47 µg/mL (≈ 0.792 µM)
- IC50 (P388/ADM): 4.3 µg/mL (≈ 7.24 µM)

SMILES: CCCCCCCCCCCCCCCCCC(=O)OCC(CO[C@H]1O[C@H](CS(=O)(=O)[O-])[C@@H](O)[C@H](O)[C@H]1O)OC(=O)CCCCCCCCCCCCCCCCC.[Na+] (stereo partly drawn)
- IC50 (A549): 75.5 µg/mL
